Experimental data taken from ChEMBL document CHEMBL1139006, “Synthesis and in vitro antibiotic activity of 16-membered 9-O-arylalkyloxime macrolides” (2006).
In brackets after ≈: the same amount, converted by molar mass.

Tests used:
Assay type in all cases: functional
[1] = test system: Streptococcus pneumoniae; assay: Antibacterial activity against Streptococcus pneumoniae ATCC 6301
[2] = test system: Streptococcus pneumoniae; assay: Antibacterial activity against Streptococcus pneumoniae ATCC 700671
[3] = test system: Streptococcus pneumoniae; assay: Antibacterial activity against macrolide resistant Streptococcus pneumoniae ATCC 700676
[4] = test system: Streptococcus pneumoniae; assay: Antibacterial activity against macrolide resistant Streptococcus pneumoniae ATCC 700677
[5] = test system: Streptococcus pneumoniae; assay: Antibacterial activity against macrolide resistant Streptococcus pneumoniae ATCC 700905
[6] = test system: Streptococcus pneumoniae; assay: Antibacterial activity against macrolide resistant Streptococcus pneumoniae ATCC 700906
[7] = test system: Streptococcus pneumoniae; assay: Antibacterial activity against Streptococcus pneumoniae ATCC 49619
[8] = test system: Staphylococcus aureus; assay: Antibacterial activity against Staphylococcus aureus ATCC 6538p
[9] = test system: Staphylococcus aureus; assay: Antibacterial activity against macrolide resistant Staphylococcus aureus ATCC 33591
[10] = test system: Staphylococcus aureus; assay: Antibacterial activity against macrolide resistant Staphylococcus aureus ATCC 141541
[11] = test system: Staphylococcus aureus; assay: Antibacterial activity against macrolide resistant Staphylococcus aureus ATCC BAA-39
[12] = test system: Staphylococcus aureus; assay: Antibacterial activity against macrolide resistant Staphylococcus aureus ATCC BAA-44
[13] = test system: Staphylococcus aureus; assay: Antibacterial activity against Staphylococcus aureus ATCC 29213
[14] = test system: Staphylococcus epidermidis; assay: Antibacterial activity against Staphylococcus epidermidis ATCC 12228
[15] = test system: Enterococcus faecalis; assay: Antibacterial activity against Enterococcus faecalis ATCC 51575

Row | SMILES | MIC [1] [µg/mL] | MIC [2] [µg/mL] | MIC [3] [µg/mL] | MIC [4] [µg/mL] | MIC [5] [µg/mL] | MIC [6] [µg/mL] | MIC [7] [µg/mL] | MIC [8] [µg/mL] | MIC [9] [µg/mL] | MIC [10] [µg/mL] | MIC [11] [µg/mL] | MIC [12] [µg/mL] | MIC [13] [µg/mL] | MIC [14] [µg/mL] | MIC [15] [µg/mL]
1 | CC[C@H]1OC(=O)C[C@@H](O)[C@H](C)[C@@H](O[C@@H]2O[C@H](C)[C@@H](O)[C@H](N(C)C)[C@H]2O)[C@@H](CC=O)C[C@@H](C)C(=N/OCCCCOc2ccc3ncccc3c2)/C=C/C(C)=C/C1CO (stereo not given in full) | 0.025 (≈ 0.0308 µM) | 0.025 (≈ 0.0308 µM) | 0.025 (≈ 0.0308 µM) | 0.39 (≈ 0.48 µM) | 0.025 (≈ 0.0308 µM) | > 12.5 | 0.01 (≈ 0.0123 µM) | 0.2 (≈ 0.246 µM) | > 12.5 | 0.78 (≈ 0.961 µM) | > 12.5 | > 12.5 | 0.78 (≈ 0.961 µM) | 0.2 (≈ 0.246 µM) | > 12.5
2 | CC[C@H]1OC(=O)C[C@@H](O)[C@H](C)[C@@H](O[C@@H]2O[C@H](C)[C@@H](O)[C@H](N(C)C)[C@H]2O)[C@@H](CC=O)C[C@@H](C)C(=N/OCc2ccccc2)/C=C/C(C)=C/C1CO (stereo not given in full) | 0.025 (≈ 0.0356 µM) | 0.2 (≈ 0.285 µM) | 0.025 (≈ 0.0356 µM) | 1.56 (≈ 2.22 µM) | 0.2 (≈ 0.285 µM) | > 12.5 | 0.2 (≈ 0.285 µM) | 0.39 (≈ 0.555 µM) | > 12.5 | 1.56 (≈ 2.22 µM) | > 12.5 | > 12.5 | 1.56 (≈ 2.22 µM) | 0.78 (≈ 1.11 µM) | > 12.5
3 | CC[C@H]1OC(=O)C[C@@H](O)[C@H](C)[C@@H](O[C@@H]2O[C@H](C)[C@@H](O)[C@H](N(C)C)[C@H]2O)[C@@H](CC=O)C[C@@H](C)C(=N/OC/C=C\c2cnc3ccccc3c2)/C=C/C(C)=C/C1CO (stereo not given in full) | 0.025 (≈ 0.0321 µM) | 0.025 (≈ 0.0321 µM) | 0.049 (≈ 0.0628 µM) | > 12.5 | 0.049 (≈ 0.0628 µM) | > 12.5 | 0.025 (≈ 0.0321 µM) | 0.2 (≈ 0.256 µM) | > 12.5 | 0.78 (≈ 1 µM) | > 12.5 | > 12.5 | 0.78 (≈ 1 µM) | 0.39 (≈ 0.5 µM) | > 12.5
4 | CC[C@H]1OC(=O)C[C@@H](O)[C@H](C)[C@@H](O[C@@H]2O[C@H](C)[C@@H](O)[C@H](N(C)C)[C@H]2O)[C@@H](CC=O)C[C@@H](C)C(=N/OCC(=O)N2CCN(c3ccccc3)CC2)/C=C/C(C)=C/C1CO (stereo not given in full) | 0.025 (≈ 0.0307 µM) | 0.025 (≈ 0.0307 µM) | 0.39 (≈ 0.479 µM) | 6.25 (≈ 7.67 µM) | 0.2 (≈ 0.245 µM) | > 12.5 | 0.01 (≈ 0.0123 µM) | 0.78 (≈ 0.957 µM) | > 12.5 | 1.56 (≈ 1.91 µM) | > 12.5 | > 12.5 | 1.56 (≈ 1.91 µM) | 0.2 (≈ 0.245 µM) | > 12.5
5 | CC[C@H]1OC(=O)C[C@@H](O)[C@H](C)[C@@H](O[C@@H]2O[C@H](C)[C@@H](O)[C@H](N(C)C)[C@H]2O)[C@@H](CC=O)C[C@@H](C)C(=N\OCC#Cc2cnc3ccccc3c2)/C=C/C(C)=C/C1CO (stereo not given in full) | 0.025 (≈ 0.0321 µM) | 0.049 (≈ 0.063 µM) | 0.049 (≈ 0.063 µM) | > 12.5 | 0.049 (≈ 0.063 µM) | > 12.5 | 0.049 (≈ 0.063 µM) | 0.098 (≈ 0.126 µM) | > 12.5 | 0.78 (≈ 1 µM) | > 12.5 | > 12.5 | 0.39 (≈ 0.501 µM) | 0.2 (≈ 0.257 µM) | > 12.5
6 | CC[C@H]1OC(=O)C[C@@H](O)[C@H](C)[C@@H](O[C@@H]2O[C@H](C)[C@@H](O)[C@H](N(C)C)[C@H]2O)[C@@H](CC=O)C[C@@H](C)C(=N\OCCOc2ccccc2)/C=C/C(C)=C/C1CO (stereo not given in full) | 0.098 (≈ 0.134 µM) | 0.39 (≈ 0.532 µM) | 0.2 (≈ 0.273 µM) | 1.56 (≈ 2.13 µM) | 0.78 (≈ 1.06 µM) | > 12.5 | 0.2 (≈ 0.273 µM) | 1.56 (≈ 2.13 µM) | > 12.5 | 3.12 (≈ 4.26 µM) | > 12.5 | > 12.5 | 3.12 (≈ 4.26 µM) | 1.56 (≈ 2.13 µM) | > 12.5
7 | CC[C@H]1OC(=O)C[C@@H](O)[C@H](C)[C@@H](O[C@@H]2O[C@H](C)[C@@H](O)[C@H](N(C)C)[C@H]2O)[C@@H](CC=O)C[C@@H](C)C(=N/OC/C=C\c2ccc3nccnc3c2)/C=C/C(C)=C/C1CO (stereo not given in full) | 0.025 (≈ 0.032 µM) | 0.049 (≈ 0.0627 µM) | 0.049 (≈ 0.0627 µM) | > 12.5 | 0.049 (≈ 0.0627 µM) | > 12.5 | 0.025 (≈ 0.032 µM) | 0.2 (≈ 0.256 µM) | > 12.5 | 0.39 (≈ 0.499 µM) | > 12.5 | > 12.5 | 0.39 (≈ 0.499 µM) | 0.2 (≈ 0.256 µM) | > 12.5
8 | CC[C@H]1OC(=O)C[C@@H](O)[C@H](C)[C@@H](O[C@@H]2O[C@H](C)[C@@H](O)[C@H](N(C)C)[C@@H]2O)[C@@H](CCN2CC(C)CC(C)C2)C[C@@H](C)C(=N/OCCCc2ccc3ncccc3c2)/C=C/C(C)=C/C1CO (stereo not given in full) | 6.25 (≈ 7.11 µM) | 6.25 (≈ 7.11 µM) | > 12.5 | > 12.5 | > 12.5 | > 12.5 | 6.25 (≈ 7.11 µM) | 12.5 (≈ 14.2 µM) | > 12.5 | > 12.5 | > 12.5 | > 12.5 | > 12.5 | > 12.5 | > 12.5
9 | CC[C@H]1OC(=O)C[C@@H](O)[C@H](C)[C@@H](O[C@@H]2O[C@H](C)[C@@H](O)[C@H](N(C)C)[C@H]2O)[C@@H](CC=O)C[C@@H](C)C(=N/OCCOc2ccccc2)/C=C/C(C)=C/C1CO (stereo not given in full) | 0.025 (≈ 0.0341 µM) | 0.025 (≈ 0.0341 µM) | 0.025 (≈ 0.0341 µM) | 0.39 (≈ 0.532 µM) | 0.025 (≈ 0.0341 µM) | > 12.5 | 0.01 (≈ 0.0136 µM) | 0.098 (≈ 0.134 µM) | > 12.5 | 0.39 (≈ 0.532 µM) | > 12.5 | > 12.5 | 0.2 (≈ 0.273 µM) | 0.2 (≈ 0.273 µM) | > 12.5
10 | CC[C@H]1OC(=O)C[C@@H](O)[C@H](C)[C@@H](O[C@@H]2O[C@H](C)[C@@H](O)[C@H](N(C)C)[C@H]2O)[C@@H](CC=O)C[C@@H](C)C(=N\OCc2ccccc2)/C=C/C(C)=C/C1CO (stereo not given in full) | 0.2 (≈ 0.285 µM) | 0.39 (≈ 0.555 µM) | 0.2 (≈ 0.285 µM) | 3.12 (≈ 4.44 µM) | 0.39 (≈ 0.555 µM) | > 12.5 | 0.2 (≈ 0.285 µM) | 0.78 (≈ 1.11 µM) | > 12.5 | 1.56 (≈ 2.22 µM) | > 12.5 | > 12.5 | 1.56 (≈ 2.22 µM) | 1.56 (≈ 2.22 µM) | > 12.5
11 | CC[C@H]1OC(=O)C[C@@H](O)[C@H](C)[C@@H](O[C@@H]2O[C@H](C)[C@@H](O)[C@H](N(C)C)[C@H]2O)[C@@H](CC=O)C[C@@H](C)C(=N\OC/C=C/c2cnc3ccccc3c2)/C=C/C(C)=C/C1CO (stereo not given in full) | 0.025 (≈ 0.0321 µM) | 0.049 (≈ 0.0628 µM) | 0.049 (≈ 0.0628 µM) | > 12.5 | 0.049 (≈ 0.0628 µM) | > 12.5 | 0.025 (≈ 0.0321 µM) | 0.098 (≈ 0.126 µM) | > 12.5 | 0.39 (≈ 0.5 µM) | > 12.5 | > 12.5 | 0.39 (≈ 0.5 µM) | 0.049 (≈ 0.0628 µM) | > 12.5
12 | CC[C@H]1OC(=O)C[C@@H](O)[C@H](C)[C@@H](O[C@@H]2O[C@H](C)[C@@H](O)[C@H](N(C)C)[C@H]2O)[C@@H](CC=O)C[C@@H](C)C(=N/OCC#Cc2cnc3ccccc3c2)/C=C/C(C)=C/C1CO (stereo not given in full) | 0.025 (≈ 0.0321 µM) | 0.025 (≈ 0.0321 µM) | 0.025 (≈ 0.0321 µM) | > 12.5 | 0.049 (≈ 0.063 µM) | > 12.5 | 0.025 (≈ 0.0321 µM) | 0.098 (≈ 0.126 µM) | > 12.5 | 0.39 (≈ 0.501 µM) | > 12.5 | > 12.5 | 0.39 (≈ 0.501 µM) | 0.098 (≈ 0.126 µM) | > 12.5
